{"source": "paper PMC11091967", "about": "“Silicon-Rhodamine Functionalized Evocalcet Probes Potently and Selectively Label Calcium Sensing Receptors In Vitro, In Vivo, and Ex Vivo” (ACS Pharmacology & Translational Science, 2024)", "key": {"human CaSR [1]": {"target": "T1, human CaSR (Homo sapiens, UniProt P41180)", "T1 construct": "host or cells: CCL39 hamster lung fibroblasts stably transfected (HCAR), Geneticin selection", "T1 sequence (P41180 20-1078)": "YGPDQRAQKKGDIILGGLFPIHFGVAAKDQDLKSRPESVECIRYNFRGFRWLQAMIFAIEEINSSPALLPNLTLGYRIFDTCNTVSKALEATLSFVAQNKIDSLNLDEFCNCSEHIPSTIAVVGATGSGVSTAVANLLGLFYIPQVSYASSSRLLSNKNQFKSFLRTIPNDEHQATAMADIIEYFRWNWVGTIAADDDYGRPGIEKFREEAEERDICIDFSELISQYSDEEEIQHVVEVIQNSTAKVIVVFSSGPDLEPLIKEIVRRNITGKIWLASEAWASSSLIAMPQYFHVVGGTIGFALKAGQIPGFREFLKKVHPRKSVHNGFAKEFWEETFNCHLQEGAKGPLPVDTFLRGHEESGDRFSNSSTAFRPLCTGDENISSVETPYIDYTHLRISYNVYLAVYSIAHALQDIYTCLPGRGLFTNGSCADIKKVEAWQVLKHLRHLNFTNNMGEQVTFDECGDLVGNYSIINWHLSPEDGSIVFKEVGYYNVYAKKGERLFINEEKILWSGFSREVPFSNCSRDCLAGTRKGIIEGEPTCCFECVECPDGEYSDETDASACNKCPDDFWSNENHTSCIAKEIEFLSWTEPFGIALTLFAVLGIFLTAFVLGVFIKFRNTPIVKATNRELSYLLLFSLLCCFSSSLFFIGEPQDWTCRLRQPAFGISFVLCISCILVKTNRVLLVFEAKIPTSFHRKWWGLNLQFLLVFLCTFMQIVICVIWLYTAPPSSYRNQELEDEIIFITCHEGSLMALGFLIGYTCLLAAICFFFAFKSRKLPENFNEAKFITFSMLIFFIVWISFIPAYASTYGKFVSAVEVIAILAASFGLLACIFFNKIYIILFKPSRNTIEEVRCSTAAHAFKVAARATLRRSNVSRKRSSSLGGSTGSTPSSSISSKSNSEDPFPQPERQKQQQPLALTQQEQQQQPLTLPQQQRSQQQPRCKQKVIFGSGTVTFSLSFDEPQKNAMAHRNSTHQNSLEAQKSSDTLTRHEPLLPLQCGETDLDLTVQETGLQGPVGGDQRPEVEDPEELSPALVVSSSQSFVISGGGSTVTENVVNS", "test": "FLIPR-based functional CaSR calcium assay in HCAR cells", "format": "cell-based", "settings": "for fold improvement in potency toward CaSR compared to evocalcet / fold increase in potency toward CaSR compared to the evocalcet-linker conjugate: FLIPR assay", "description": "Hamster lung fibroblasts (CCL39, CaSR−) expressing the recombinant human CaSR (HCAR, CaSR+) and nontransected controls were kindly provided by Novartis AG and were kept in standard culturing conditions (37 °C, 5% CO2) in 1/2 DMEM (Roth, 9005.1)—1/2 F-12 (Sigma, N4888–500 mL) media containing 10% FBS. Media for the HCAR cells contained 500 μg/mL Geneticin as a selection antibiotic (Thermo Fisher, 10131035). Upon reaching 90–95% confluence, cells were detached and seeded into 96-well plates (PerkinElmer, 6005182) at a concentration of 35,000 cells per well and were incubated for 24 h before the experiment. For the functional CaSR calcium assay, cells were first washed twice with HBSS medium (Sigma, H6648), and were incubated in HBSS containing 5 μM Fluo-8 AM and 0.1 mM CaCl2 for 30 min at 37 °C. Calcium transients were measured upon addition of 0.5 mM CaCl2 with the FLIPR Tetra high-throughput cellular screening systems using the 470–495 nm LED excitation and 515–575 nm bandpass emission filters. Probe solutions contained 0.5% DMSO and were added to the cells 10 min prior to the measurement. dF/F0 values were calculated as a change in the peak fluorescence value of the transient for the first 200 data points normalized to the background fluorescence of the well. […] Both cells were washed with HBSS medium twice and then incubated for 10 min at 37 °C in HBSS medium containing 0.1% BSA in the presence or absence of 10 μM evocalcet. Upon the removal of media, cells were incubated in various concentrations of EvoSiR4 and EvoSiR6 in HBSS containing 0.1% BSA for 30 min at 37 °C and were subsequently washed 3 times with 0.1% BSA and resuspended in DMSO before the fluorometric measurement. The fluorescence was measured using a Tecan GENios pro microplate reader with the following parameters: λex = 612 nm, λem = 670 nm, gain = 50 AU. Data for the EvoSiR probes and the evocalcet competition is reported as CaSR-specific fluorescence, which was calculated by dividing the absolute fluorescence of the HCAR cells with the absolute fluorescence of the CCL39 cells for each concentration."}, "human CaSR [2]": {"target": "T1, human CaSR", "test": "In vitro labeling of CaSR expressing (HCAR) and control (CCL39) cells, fluorescence microscopy", "format": "cell-based", "settings": "for fold increase in skewness of pixel intensity distribution, CaSR+ (HCAR) vs CaSR- (CCL39) cells: 500 nM probe; for fold mean fluorescence difference between CaSR+ and CaSR- cells: 72 h incubation", "description": "HCAR (CaSR+) and CCL39 (CaSR−) cells were kindly obtained from Novartis AG (Basel, Switzerland) and validated in house. The cells were seeded into μ-slide 18 well plates (ibidi, 81816) at a density of 5000 cells per well and were incubated for 24 h under standard culturing conditions. As our preliminary data indicated considerable nonspecific labeling of dying cells and cellular debris, a viability staining was introduced to ensure probe specificity.[29] Thus, after washing twice with HBSS, cells were incubated in 10 μM Calcein AM solution containing 0.02% Pluronic F-127 and 0.1% DMSO for 45 min at 37 °C. The solution was then removed and washed twice in HBSS before the addition of the HBSS solution containing the SiR probes. All probe solutions were protected from light exposure and contained 0.5% DMSO and various concentrations of BSA depending on the experiment. Incubation with the fluorescent probes was 20 min long, after which a single washing step was introduced with HBSS before imaging. Images of the cells (Calcein: FITC channel, SiR: Cy5 channel) were acquired with a Nikon Eclipse TI2 inverted wide-field fluorescence microscope using a 60× magnification oil immersion objective (Nikon CFI Plan Fluor, 60×, NA = 0.85). For each well, a minimum of 3 images were acquired. For each image, cells were segmented to generate labels on the FITC channel postacquisition using the deep neural network-based Cellpose package in Python 3.9 (model_type: cyto2, diameter: 200, flow_threshold: 0.4).[30] To normalize pixel intensity values across images, for each image, a background value was calculated by taking the average pixel intensity value of the pixels in which no cellular label was present and were negative for the EvoSiR label (triangle thresholding used). For each cell, the skewness of the value distribution and the mean of the Cy5 pixel intensities were calculated. The procedure for evaluating the long-term labeling (72 h) of EvoSiR probes on CCL39 and HCAR cells was similar, with the following modifications: images were retrieved using 10× magnification air objectives (Nikon CFI Plan Fluor 10×, NA = 0.3), in the neural network model, the diameter parameter was set to 30, and only the mean Cy5 pixel intensities per cell object were retrieved."}, "[3]": {"settings": "EC50, positive allosteric modulation of CaSR activity, HCAR cells, response to addition of 0.5 mM CaCl2, no BSA"}}, "note": "Values joined by “and” are separate entries in the source; they are usually repeats but may differ in a detail not shown here. Identical values can stand only once. Like-named read-outs stand apart in the source and are kept apart here.", "data": [{"smiles": "Cc1cc(C(=O)NCCCCNC(=O)Cc2ccc(N3CC[C@H](N[C@H](C)c4cccc5ccccc45)C3)cc2)ccc1C1=C2C=CC(=[N+](C)C)C=C2[Si](C)(C)c2cc(N(C)C)ccc21", "note": "[EvoSiR4]", "values": [{"measurement": "EC50", "setting": "human CaSR [1]; [3]", "value": "< 45 nM and ~40 nM and 38 nM"}, {"measurement": "EC50", "setting": "human CaSR [1]; EC50 in 0.1% BSA, 0.1% BSA", "value": "64 ± 12", "unit": "nM"}, {"measurement": "EC50", "setting": "human CaSR [1]; EC50 in 0.5% BSA, 0.5% BSA", "value": "102 ± 34", "unit": "nM"}, {"measurement": "EC50", "setting": "human CaSR [1]; EC50 in 1% BSA, 1% BSA", "value": "106 ± 42", "unit": "nM"}, {"measurement": "fold improvement in potency toward CaSR compared to evocalcet", "setting": "human CaSR [1]", "value": 6, "unit": "fold"}, {"measurement": "fold increase in potency toward CaSR compared to the evocalcet-linker conjugate", "setting": "human CaSR [1]", "value": 3, "unit": "fold"}, {"measurement": "fold reduction in the EC50 value upon washing with HBSS", "setting": "human CaSR [1]; incubated in 1% BSA, washed with HBSS upon 10 min incubation", "value": 10, "unit": "fold"}, {"measurement": "fold increase in skewness of pixel intensity distribution, CaSR+ (HCAR) vs CaSR- (CCL39) cells", "setting": "human CaSR [2]; 0.1% BSA", "value": 3.7, "unit": "fold"}, {"measurement": "concentration above which skewness significantly increased for HCAR compared to CCL39", "setting": "human CaSR [2]; 1% BSA", "value": "above 2500 nM"}, {"measurement": "fold mean fluorescence difference between CaSR+ and CaSR- cells", "setting": "human CaSR [2]; 50 nM", "value": 1.3, "unit": "fold"}, {"measurement": "fold mean fluorescence difference between CaSR+ and CaSR- cells", "setting": "human CaSR [2]; 200 nM", "value": 2.5, "unit": "fold"}, {"measurement": "concentration at which skewness values saturate", "setting": "human CaSR [2]; HCAR (CaSR+) cells, 0.1% BSA", "value": 500, "unit": "nM"}, {"measurement": "concentration above which skewness significantly increased for HCAR compared to CCL39", "setting": "human CaSR [2]; no BSA and 0.1% BSA", "value": "above 500 nM"}]}, {"smiles": "C[C@@H](N[C@H]1CCN(c2ccc(CC(=O)O)cc2)C1)c1cccc2ccccc12", "note": "[evocalcet]", "values": [{"measurement": "EC50", "setting": "human CaSR [1]; HCAR cells, response to addition of 0.5 mM CaCl2, no BSA, read-out: EC50, positive allosteric modulation of CaSR activity", "value": "243 ± 15", "unit": "nM"}, {"measurement": "reduction in skewness of pixel intensity distribution of EvoSiR4 labeling by competition", "setting": "human CaSR [2]; CaSR+ cells preincubated with 0–500 nM evocalcet in 0.1% BSA", "value": 55, "unit": "%"}]}, {"smiles": "Cc1cc(C(=O)NCCCCCCNC(=O)Cc2ccc(N3CC[C@H](N[C@H](C)c4cccc5ccccc45)C3)cc2)ccc1C1=C2C=CC(=[N+](C)C)C=C2[Si](C)(C)c2cc(N(C)C)ccc21", "note": "[EvoSiR6]", "values": [{"measurement": "EC50", "setting": "human CaSR [1]; [3]", "value": "< 45 nM and ~40 nM and 42 nM"}, {"measurement": "fold improvement in potency toward CaSR compared to evocalcet", "setting": "human CaSR [1]", "value": 6, "unit": "fold"}, {"measurement": "fold increase in potency toward CaSR compared to the evocalcet-linker conjugate", "setting": "human CaSR [1]", "value": 3, "unit": "fold"}, {"measurement": "fold increase in skewness of pixel intensity distribution, CaSR+ (HCAR) vs CaSR- (CCL39) cells", "setting": "human CaSR [2]; 0.1% BSA", "value": 2.3, "unit": "fold"}]}]}
